Results taken from US8796241B2, “Therapy of tumors and infectious agents deficient in methylthioadenosine phosphorylase” (priority 2007, dated 2014).

Tests used:
MTAP-negative cell lines = test: Applicants' tissue culture experiments on MTAP-negative cell lines (summary statements); assay type: cell-based, human; mouse; conditions: L1210, HL-60, K-562, MCF7, MDA-MB-231, A549, PANC-1
MTAP(−) A549 cells = test: Clonogenic assay of A549 cells; assay type: cell-based, human
Procedure: (§1) Cell viability of adherent cell types was measured by clonogenic assay as follows: after releasing cells with trypsin and removing a portion of the cell suspension for Coulter counting, the remainder of the cell suspension was plated in serial dilutions in growth medium, without drugs. After a period sufficient for clones to reach a size visible by eye (usually 2 to 3 weeks), clones were stained with crystal violet in a saline/methanol solution. Dishes that had fewer than 100 clones were deemed suitable for counting. From these counts and from the dilution factors, the approximate number of viable cells, in the parent treatment dishes, was calculated. […] In clonogenic assays, clone size was often variable, especially after treatment with toxic drugs. Moreover, many of the very small clones may have arisen from cells detached during the weeks of incubation. […] Cloning efficiency for healthy, growing A549 cells was about 50%; for HF cells, efficiency was quite variable, ranging from 25 to 75% (perhaps because the HF cell stock varied, from experiment to experiment, in passage number).
A549 cells were incubated for 4 days with additions shown below, and viable cells measured by clonogenic assay. (Results shown are approximate; see Methods) Cell count in dish at start: 40,000
• MTAP(−) A549 lung tumor cell cultures were treated with F-Ade, with or without MTA, 5′-dAdo, or adenine (Ade), for three days. Coulter counts of cells, and viable cells as determined by clonogenic assay, are shown below: • Initial cell number: 10,340*
• A549 cell cultures were treated with DAP, with or without 5′-dAdo or adenine, for three days. After trypsinization, one-fourth of the cell suspension was counted, and raw data is shown below, with duplicate counts for each sample. The cell suspension was also serially diluted for clonogenic assay. • Counts at start of experiment: Dish one: 36,480; 39,160; Dish two: 52,680; 51,360. • Initial viable cells by clonogenic assay: 180,000.
• Cell cultures were treated with MTX or alanosine for one day. DAP was then added and 3 days later, cells were trypsinized and serially diluted for clonogenic assay. Results are shown below: • Initial viable cells: 146,000
• A549 cells were plated, and after they had adhered to the substrate, medium was changed to methionine-free medium with 10% dialyzed serum. L-ethionine (Eth) and MTA were added, and after 4 days, cell cultures were trypsinized and serially diluted for clonogenic assay. • Initial number of viable cells: 160,000*
• A549 cultures were treated with 6-thioguanine (TG) or 2,6,diaminopurine (DAP), or both, for 3 days. • Initial viable cells: 275,000 • After 3 days: […]

mice = conditions: high doses; cited from earlier work
MTAP(+) HF cells = test: Clonogenic assay of HF cells; assay type: cell-based, human; conditions: 30 μM 5′-dAdo, 2 μM F-Ade, 3 days
Procedure: as §1
• B. F-Ade was added to cultures of MTAP(+) HF cells, with or without 5′-dAdo, for 3 days. Cultures were then trypsinized and serially diluted for clonogenic assay. • Initial number of viable cells per dish: 45,000 • Viable cells after 3 days shown below:
• HF cells were plated, and after they had adhered to the substrate, medium was changed to methionine-free medium, with 10% dialyzed serum. • Initial Coulter count: 73,000*; viable cells: 88,000 • After 3 days in methionine-free medium, with or without L-ethionine (Eth) or MTA: […]

[1] = tested on: MTAP-positive cells and cells lines; test: Applicants' tissue culture experiments on protection of MTAP-positive cells (summary statements); assay type: cell-based, human; mouse
[2] = tested on: MTAP(+) HT29 colon carcinoma cells; test: Coulter counts of HT29 cultures; assay type: cell-based, human; conditions: Example 12
Procedure: For adherent cell types, cell numbers were determined periodically by releasing cells with trypsin (dead cells that were no longer adherent were removed by two prior rinses of the culture dish) and placing a portion of the resulting cell suspension in a Coulter counter. For cell types that grow in suspension, portions of the culture were counted directly, without trypsin treatment. Coulter counts of cells from each dish were done twice, and almost all experiments were done in duplicate. In the presentation of results, raw data for Coulter counts is given in some cases, while in others, counts have been rounded off to two to three significant figures. (Background Coulter counts—i.e., counts of diluent alone—were insignificant.)
• 5′-dAdo was added to cultures of MTAP(+) HT29 colon carcinoma cells for one day. 5-fluorouracil (FU) was then added and 4 days later cultures were trypsinized, thoroughly dispersed into mostly single cells by vigorous pipetting, and counted. • Initial Coulter count at time of addition of FU: 46,000

C[C@H]1O[C@@H](n2cnc3c(N)ncnc32)[C@H](O)[C@@H]1O [5′-dAdo, 5′-deoxyadenosine]
protection against the toxicity of adenine and/or methionine antagonists (MTAP-negative cell lines): inability | blocking of MeP toxicity in A549 cells (MTAP(−) A549 cells; 10 μM MeP): not | blocking of DAP toxicity in A549 cells (MTAP(−) A549 cells; 100 μM DAP, Example 7): did not block | blocking of F-Ade toxicity in A549 cells (MTAP(−) A549 cells; 1 to 2 μM F-Ade): not | toxicity in vivo (mice): non-toxic | blocking of F-Ade toxicity in HF cells (MTAP(+) HF cells): effectively blocks | protection from highly toxic doses of adenine and/or methionine competitive antagonists ([1]; HF, mouse hematopoietic progenitors, HT-29, ML-1, EJ, T-47D, ZR-75-1, MDA-MB-468): provide protection | blocking of toxicity of very high doses of 2,6-diaminopurine, 2-fluoroadenine, 6-methylpurine ([1]; normal human and mouse cells): effectively blocked | blocking of FU toxicity in MTAP(+) HT29 cells [2]: blocked
